Test results taken from paper PMC6522510 (Nature Communications, 2019).

Key:
Set-up in all cases: species or system AML cell lines (8); Primary HTS, single concentration about 10 uM, Cell Titer Glo viability; log10 luminescence, per cent inhibition relative to cycloheximide control
Details in all cases: 72 h, relative to cycloheximide control, log10 luminescence; inhibitor
CMS = test system: CMS
U937 = test system: U937
ML-2 = test system: ML-2
CHRF288-11 = test system: CHRF288-11
MOLM-13 = test system: MOLM-13
CMK = test system: CMK
MV4-11 = test system: MV4-11
M07e = test system: M07e

SMILES	CMS %inh (CMS) [%]	U937 %inh (U937) [%]	ML-2 %inh (ML-2) [%]	CHRF288-11 %inh (CHRF288-11) [%]	MOLM-13 %inh (MOLM-13) [%]	CMK %inh (CMK) [%]	MV4-11 %inh (MV4-11) [%]	M07e %inh (M07e) [%]
COC(=O)c1sc(-n2cnc3cc(OC)c(OC)cc32)cc1OCc1ccccc1C(F)(F)F [SJ000573308-1, U22436/119/1]	4.6	29.63	-1.915	-2.151	-0.8474	0.3974	-1.071	0.7415
O=C1Nc2ccccc2C1=C1CCc2cc(O)ccc21 [SJ000573309-1, C1338/186/2]	4.291	12.06	4.662	18.33	102.5	25.36	57.39	0.9027
Nc1nccc(C#Cc2cncnc2Nc2ccc(OCc3cccc(F)c3)c(Cl)c2)n1 [SJ000573310-1, U16767/158/1]	85.29	80.64	58.71	34.34	9.977	11.36	82.16	42.98
COc1cc(Nc2ncc3c(C)nc(-c4cccc(C(F)(F)F)c4)n3n2)cc(OC)c1OC [SJ000573311-1, U19240/54/1]	21.85	12.36	7.183	12.88	85.98	13.06	65.83	19.43
CCn1c(-c2nonc2N)nc2c(C#CC(C)(C)O)nc(OC[C@@H](N)c3ccccc3)cc21 [SJ000573312-1, LS204454-145A1 | LS204454-146A1]	24.21	37.57	7.922	122.3	19.15	11.49	7.841	29.99
CCn1c(-c2nonc2N)nc2c(C#CC(C)(C)O)nc(OC[C@H](N)c3ccccc3)cc21 [SJ000573312-2, LS204454-145A1 | LS204454-146A1]	42.42	44.96	28.64	83.17	14.91	111.5	22.87	46.62
CCn1c(-c2nonc2N)nc2c(C#CC(C)(C)O)nc(OCCNC)cc21 [SJ000573313-1, MS205583-134A1]	10.14	64.14	3.569	6.621	19.98	13.56	55.12	22.08
CCn1c(-c2nonc2N)nc2c(C#CC(C)(C)O)nc(CN3CCCC3)cc21 [SJ000573314-1, MR206418-021A1]	3.945	4.345	-0.4194	4.422	-1.58	2.979	2.964	-3.096
NS(=O)(=O)c1ccc(Nc2cc(-c3ccc(O)c(F)c3)n[nH]2)cc1 [SJ000573315-1, T350/112/30]	-2.048	0.1443	0.5816	-4.039	77.64	-1.653	53.96	-0.4073
N#Cc1c(NC(=O)CN2CCOCC2)sc2c1CCCC2 [SJ000573317-1, ST/830472]	0.5199	3.525	1.88	1.546	-0.7057	-5.985	-2.657	3.047
c1cnn2ncc(-c3ccnc(Nc4ccc5c(c4)OCCO5)n3)c2c1 [SJ000573318-1, U18020/87/1]	106	81.34	59.44	71.61	99.59	109.1	79.44	112.6
COc1cc(Nc2nccc(Nc3ccc4c(C)n[nH]c4c3)n2)cc(OC)c1OC [SJ000573319-1, U17574/67/1]	87.58	62.59	29.66	80.56	98.77	114.1	77.98	71.44
CCn1cc(-c2ccnc3[nH]ccc23)c(-c2cccc(NC(=O)Nc3ccc(OCc4ccccc4)cc3)c2)n1 [SJ000573320-1, R11459/78/21]	4.452	1.634	18.08	55.15	71.46	77.69	7.18	13.09
Nc1ncc(-c2cccc(S(N)(=O)=O)c2)c2scc(-c3ccc(F)c(Cl)c3)c12 [SJ000573321-1, T398/119/1]	4.233	8.699	3.028	3.763	16.59	13	8.004	3.71
COc1ccc2ncn(-c3cc(O[C@H](C)c4ccccc4C(F)(F)F)c(C(N)=O)s3)c2c1 [SJ000573322-1, U20814/199/10]	76.93	82.26	37.32	71.55	82.54	113.1	71.74	100.1
COc1ccc(-c2coc3ncnc(N)c23)cc1 [SJ000573323-1, R6872/61/3]	-2.18	2.094	-3.247	1.277	0.9708	0.752	-1.377	-2.594
NS(=O)(=O)c1ccc(Nc2cc(-c3cccc(O)c3)n[nH]2)cc1 [SJ000573324-1, T350/111/20]	0.8193	-2.304	1.059	-4.339	21.76	-2.15	18.96	-0.9399
Cc1ccc(-c2cc3c(NC(=O)C4CC4)ncnc3o2)cc1 [SJ000573325-1, T337/155/21]	1.223	-2.342	1.949	1.899	-1.693	-5.745	-4.319	5.01
NS(=O)(=O)c1cccc(Nc2cc(-c3ccc(F)cc3)n[nH]2)c1 [SJ000573326-1, T350/64/20]	1.139	-2.237	1.419	-0.9199	68.76	-1.826	42.33	6.143
